Measurements reported in ChEMBL document CHEMBL1201862, “PubChem BioAssay data set” (2004).
Calls of active or inactive are those of the source.

Assays:
[1] = reduction of Shn3 3'UTR-driven luciferase in osteoblasts – cell-based, Clone20 osteoblasts, firefly luciferase, cherry-picked, dose response (AID 624132); type: functional;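 further: firefly luciferase luminescence from reporter carrying the Shn3 3'UTR in osteoblasts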
Protein RecA = target: T1, Protein RecA (Mycobacterium tuberculosis, UniProt P9WHJ3); assay: Fluorescence Cell-Free Homogeneous Dose Retest to Identify Inhibitors of RecA-Intein Splicing Activity. [Related pubchem assays (depositor defined):AID2097, AID2223, AID489010, AID492950]; type: functional
T1 sequence (P9WHJ3 whole entry): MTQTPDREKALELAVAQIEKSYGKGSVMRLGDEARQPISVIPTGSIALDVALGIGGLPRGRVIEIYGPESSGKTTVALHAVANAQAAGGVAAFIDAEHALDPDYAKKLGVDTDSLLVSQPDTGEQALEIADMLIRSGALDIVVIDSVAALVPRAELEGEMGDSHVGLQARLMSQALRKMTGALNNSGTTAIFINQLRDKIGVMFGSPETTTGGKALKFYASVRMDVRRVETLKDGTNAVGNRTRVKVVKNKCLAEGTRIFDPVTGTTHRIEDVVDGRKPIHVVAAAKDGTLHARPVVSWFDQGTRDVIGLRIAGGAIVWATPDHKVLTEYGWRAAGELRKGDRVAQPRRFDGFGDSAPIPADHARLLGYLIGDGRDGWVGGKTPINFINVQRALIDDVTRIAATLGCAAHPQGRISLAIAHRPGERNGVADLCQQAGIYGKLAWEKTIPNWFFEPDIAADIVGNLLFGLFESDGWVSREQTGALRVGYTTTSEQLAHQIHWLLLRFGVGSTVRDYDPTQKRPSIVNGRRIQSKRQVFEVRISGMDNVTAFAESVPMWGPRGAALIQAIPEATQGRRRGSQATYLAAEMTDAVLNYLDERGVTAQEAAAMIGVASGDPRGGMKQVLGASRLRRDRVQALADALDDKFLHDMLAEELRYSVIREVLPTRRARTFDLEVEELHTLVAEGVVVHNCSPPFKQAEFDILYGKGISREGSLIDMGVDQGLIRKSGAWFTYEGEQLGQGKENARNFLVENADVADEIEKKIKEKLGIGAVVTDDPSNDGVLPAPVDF

[2] = non-specific 3'UTR reporter inhibition in Clone20-Shn3RL – cell-based, Renilla luciferase, cherry-picked, counter-screen for Shn3 inhibitor project, dose response (AID 624133); type: functional
[3] = fluconazole-exposed Candida albicans growth modulators – fluorescence, retest, confirmation (AID 2467); type: functional, cell-based
[4] = loss of viability in HepG2 cells – cell-based, CellTiter-Glo, cherry-picked, cytotoxicity control for Shn3 inhibitor project, dose response (AID 624134); type: functional
[5] = Intein inhibitors as potential Tuberculosis drugs, a cytotoxicity screen. [Related pubchem assays (depositor defined):AID2221, AID2223, AID434968, AID435010, AID449749, AID449750, AID489010]; type: functional
Cytochrome P450 2C9 = Cytochrome P450 2C9 (Homo sapiens, UniProt P11712)
Sequence of Cytochrome P450 2C9 (P11712 whole entry): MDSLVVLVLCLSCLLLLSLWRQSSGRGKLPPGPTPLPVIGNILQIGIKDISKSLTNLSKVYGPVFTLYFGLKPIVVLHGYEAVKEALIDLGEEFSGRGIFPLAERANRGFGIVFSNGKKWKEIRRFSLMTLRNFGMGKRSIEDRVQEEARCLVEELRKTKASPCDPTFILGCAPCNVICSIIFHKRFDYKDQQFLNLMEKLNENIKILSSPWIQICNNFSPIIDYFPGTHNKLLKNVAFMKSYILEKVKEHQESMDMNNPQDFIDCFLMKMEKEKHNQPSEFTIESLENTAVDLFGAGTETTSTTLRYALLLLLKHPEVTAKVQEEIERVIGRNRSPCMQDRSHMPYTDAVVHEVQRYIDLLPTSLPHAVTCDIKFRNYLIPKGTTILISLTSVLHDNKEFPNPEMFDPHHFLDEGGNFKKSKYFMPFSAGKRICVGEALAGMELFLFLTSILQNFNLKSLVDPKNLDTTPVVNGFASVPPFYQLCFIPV

[6] = target: T2, Replicative DNA helicase DnaB (Mycobacterium tuberculosis, UniProt P9WMR3); assay: DnaB intein splicing inhibitors, dose response, biochemical, cell-free fluorescence (AID 449749); type: functional
T2 sequence (P9WMR3 whole entry): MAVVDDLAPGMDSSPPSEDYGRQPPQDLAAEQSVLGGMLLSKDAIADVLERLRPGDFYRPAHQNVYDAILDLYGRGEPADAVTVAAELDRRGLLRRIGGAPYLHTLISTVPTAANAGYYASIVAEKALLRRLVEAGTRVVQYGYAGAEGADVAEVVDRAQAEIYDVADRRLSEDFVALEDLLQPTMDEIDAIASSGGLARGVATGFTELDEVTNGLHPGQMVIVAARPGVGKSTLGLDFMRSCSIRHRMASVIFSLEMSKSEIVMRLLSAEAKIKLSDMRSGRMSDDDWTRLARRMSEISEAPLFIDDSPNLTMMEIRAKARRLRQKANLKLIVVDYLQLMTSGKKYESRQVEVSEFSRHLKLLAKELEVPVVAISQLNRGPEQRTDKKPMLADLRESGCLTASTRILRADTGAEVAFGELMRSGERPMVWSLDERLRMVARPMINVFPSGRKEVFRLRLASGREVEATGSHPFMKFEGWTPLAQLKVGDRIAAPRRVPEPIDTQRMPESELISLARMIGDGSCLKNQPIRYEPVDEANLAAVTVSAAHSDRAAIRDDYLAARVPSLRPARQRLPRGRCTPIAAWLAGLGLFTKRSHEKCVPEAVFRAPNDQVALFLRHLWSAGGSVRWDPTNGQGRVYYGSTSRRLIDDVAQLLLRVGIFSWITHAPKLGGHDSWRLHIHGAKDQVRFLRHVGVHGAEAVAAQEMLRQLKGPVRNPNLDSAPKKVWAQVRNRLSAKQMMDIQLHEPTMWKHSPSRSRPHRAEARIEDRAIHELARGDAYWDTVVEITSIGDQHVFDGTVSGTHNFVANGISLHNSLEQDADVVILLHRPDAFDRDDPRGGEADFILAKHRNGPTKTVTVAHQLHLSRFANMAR

[7] = target: Heat shock protein HSP 90-alpha (Homo sapiens, UniProt P07900); type: functional, organism-based
[8] = NIH-3T3 fibroblast cytotoxicity, dose response, cytotoxicity control, cell-based, fluorescence, Alamar Blue, secondary assay (AID 2327); type: functional;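 further: NIH-3T3 mouse fibroblasts cultured with fluconazole at 8 µg/mL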
[9] = target: DNA dC->dU-editing enzyme APOBEC-3A (Homo sapiens, UniProt P31941); assay: Dose Response confirmation of small molecule APOBEC3A DNA Deaminase Inhibitors via a fluorescence-based single-stranded DNA deaminase assay. [Related pubchem assays (depositor defined):AID493011, AID493024]; type: functional
Sequence of DNA dC->dU-editing enzyme APOBEC-3A (P31941 whole entry): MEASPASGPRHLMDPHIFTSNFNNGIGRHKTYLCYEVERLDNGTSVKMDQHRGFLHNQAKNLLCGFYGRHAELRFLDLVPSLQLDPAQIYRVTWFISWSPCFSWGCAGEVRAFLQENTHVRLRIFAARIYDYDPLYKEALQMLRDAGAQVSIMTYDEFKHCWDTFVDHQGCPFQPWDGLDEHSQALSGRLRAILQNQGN

[10] = target: DNA dC->dU-editing enzyme APOBEC-3G (Homo sapiens, UniProt Q9HC16); type: functional;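 further: Dose-response counterscreen measuring inhibition of APOBEC3G DNA deaminase activity, run while confirming APOBEC3A inhibitors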
Sequence of DNA dC->dU-editing enzyme APOBEC-3G (Q9HC16 whole entry): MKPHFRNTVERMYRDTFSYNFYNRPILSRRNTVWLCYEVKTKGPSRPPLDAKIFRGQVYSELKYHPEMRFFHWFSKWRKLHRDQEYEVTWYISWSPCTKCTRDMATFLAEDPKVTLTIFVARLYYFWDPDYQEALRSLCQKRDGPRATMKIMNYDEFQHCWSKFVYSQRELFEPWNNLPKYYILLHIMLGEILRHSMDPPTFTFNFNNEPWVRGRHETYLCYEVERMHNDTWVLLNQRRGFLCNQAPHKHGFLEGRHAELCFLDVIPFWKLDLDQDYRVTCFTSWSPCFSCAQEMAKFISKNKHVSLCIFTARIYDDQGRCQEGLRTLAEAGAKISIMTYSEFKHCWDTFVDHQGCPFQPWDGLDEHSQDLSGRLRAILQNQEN

[11] = Trypanosoma cruzi growth suppression in host cells – NIH3T3 host cells, beta-gal luminescence, confirmation (AID 2044); type: functional, cell-based;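 further: intracellular parasites grown in NIH/3T3 mouse fibroblasts as host cells; luminescent beta-galactosidase reporter signal from transgenic T. cruzi replicating inside host cells; inhibitors lower the luminescence signal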
[12] = NIH3T3 cell viability loss – ATP luminescence, mouse fibroblasts, counter-screen, dose response (AID 2010); type: functional, cell-based;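 further: cells exposed to compound for about 90 hours before reading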
INS1 = assay: INS-1E survival protection against cytokine death – cell-based, luminescence, retest, dose response (AID 449756); type: functional; conditions: Rattus norvegicus;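 further: cell death triggered by IL-1 beta plus TNF-alpha plus IFN-gamma mixture; protective hits raise ATP signal compared with cytokine alone wells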
[13] = target: Induced myeloid leukemia cell differentiation protein Mcl-1 (Homo sapiens, UniProt Q07820); type: functional
Sequence of Induced myeloid leukemia cell differentiation protein Mcl-1 (Q07820 whole entry): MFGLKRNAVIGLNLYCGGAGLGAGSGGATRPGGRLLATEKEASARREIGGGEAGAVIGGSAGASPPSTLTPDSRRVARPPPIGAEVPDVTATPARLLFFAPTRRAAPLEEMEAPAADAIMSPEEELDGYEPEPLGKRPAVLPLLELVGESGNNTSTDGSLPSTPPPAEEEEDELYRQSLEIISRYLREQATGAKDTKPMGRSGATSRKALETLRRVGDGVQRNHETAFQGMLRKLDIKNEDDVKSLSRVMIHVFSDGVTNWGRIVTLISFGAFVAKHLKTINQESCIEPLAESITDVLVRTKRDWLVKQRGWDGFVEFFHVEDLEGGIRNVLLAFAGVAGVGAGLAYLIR

Leucine aminopeptidase = target: T3, Leucine aminopeptidase (Plasmodium falciparum 3D7, UniProt Q8IL11); assay: P. falciparum M17LAP inhibitors, primary screen, biochemical, fluorogenic H-Leu-NHMec substrate, 1536-well (AID 1619); type: functional
T3 sequence (Q8IL11 whole entry): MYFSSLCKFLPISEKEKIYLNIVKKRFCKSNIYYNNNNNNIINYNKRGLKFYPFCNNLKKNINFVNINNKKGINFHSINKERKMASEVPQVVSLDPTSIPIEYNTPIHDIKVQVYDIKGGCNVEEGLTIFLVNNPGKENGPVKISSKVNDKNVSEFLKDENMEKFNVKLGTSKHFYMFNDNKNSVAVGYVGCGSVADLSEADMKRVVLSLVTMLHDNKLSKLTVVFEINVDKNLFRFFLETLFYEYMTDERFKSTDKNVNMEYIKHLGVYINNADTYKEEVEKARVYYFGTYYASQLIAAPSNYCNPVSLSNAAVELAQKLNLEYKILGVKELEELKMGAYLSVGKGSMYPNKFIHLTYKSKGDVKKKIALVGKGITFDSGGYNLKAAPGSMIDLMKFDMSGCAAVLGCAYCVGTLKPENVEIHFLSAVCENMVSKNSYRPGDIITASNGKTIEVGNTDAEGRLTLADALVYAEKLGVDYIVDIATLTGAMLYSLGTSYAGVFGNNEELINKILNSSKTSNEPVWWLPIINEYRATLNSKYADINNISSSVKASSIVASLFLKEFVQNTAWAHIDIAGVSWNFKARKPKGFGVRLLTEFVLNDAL

Fatty acid synthase [14] = target: T4, Fatty acid synthase (Homo sapiens, UniProt P49327); assay: inhibition of human FAS-TE enzyme activity – biochemical, endpoint fluorescence intensity, uHTS hits, dose response (AID 624327); type: functional;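 further: fluorescence from hydrolysis of an O-methyl fluorescein acyl ester substrate by the enzyme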
T4 sequence (P49327 whole entry): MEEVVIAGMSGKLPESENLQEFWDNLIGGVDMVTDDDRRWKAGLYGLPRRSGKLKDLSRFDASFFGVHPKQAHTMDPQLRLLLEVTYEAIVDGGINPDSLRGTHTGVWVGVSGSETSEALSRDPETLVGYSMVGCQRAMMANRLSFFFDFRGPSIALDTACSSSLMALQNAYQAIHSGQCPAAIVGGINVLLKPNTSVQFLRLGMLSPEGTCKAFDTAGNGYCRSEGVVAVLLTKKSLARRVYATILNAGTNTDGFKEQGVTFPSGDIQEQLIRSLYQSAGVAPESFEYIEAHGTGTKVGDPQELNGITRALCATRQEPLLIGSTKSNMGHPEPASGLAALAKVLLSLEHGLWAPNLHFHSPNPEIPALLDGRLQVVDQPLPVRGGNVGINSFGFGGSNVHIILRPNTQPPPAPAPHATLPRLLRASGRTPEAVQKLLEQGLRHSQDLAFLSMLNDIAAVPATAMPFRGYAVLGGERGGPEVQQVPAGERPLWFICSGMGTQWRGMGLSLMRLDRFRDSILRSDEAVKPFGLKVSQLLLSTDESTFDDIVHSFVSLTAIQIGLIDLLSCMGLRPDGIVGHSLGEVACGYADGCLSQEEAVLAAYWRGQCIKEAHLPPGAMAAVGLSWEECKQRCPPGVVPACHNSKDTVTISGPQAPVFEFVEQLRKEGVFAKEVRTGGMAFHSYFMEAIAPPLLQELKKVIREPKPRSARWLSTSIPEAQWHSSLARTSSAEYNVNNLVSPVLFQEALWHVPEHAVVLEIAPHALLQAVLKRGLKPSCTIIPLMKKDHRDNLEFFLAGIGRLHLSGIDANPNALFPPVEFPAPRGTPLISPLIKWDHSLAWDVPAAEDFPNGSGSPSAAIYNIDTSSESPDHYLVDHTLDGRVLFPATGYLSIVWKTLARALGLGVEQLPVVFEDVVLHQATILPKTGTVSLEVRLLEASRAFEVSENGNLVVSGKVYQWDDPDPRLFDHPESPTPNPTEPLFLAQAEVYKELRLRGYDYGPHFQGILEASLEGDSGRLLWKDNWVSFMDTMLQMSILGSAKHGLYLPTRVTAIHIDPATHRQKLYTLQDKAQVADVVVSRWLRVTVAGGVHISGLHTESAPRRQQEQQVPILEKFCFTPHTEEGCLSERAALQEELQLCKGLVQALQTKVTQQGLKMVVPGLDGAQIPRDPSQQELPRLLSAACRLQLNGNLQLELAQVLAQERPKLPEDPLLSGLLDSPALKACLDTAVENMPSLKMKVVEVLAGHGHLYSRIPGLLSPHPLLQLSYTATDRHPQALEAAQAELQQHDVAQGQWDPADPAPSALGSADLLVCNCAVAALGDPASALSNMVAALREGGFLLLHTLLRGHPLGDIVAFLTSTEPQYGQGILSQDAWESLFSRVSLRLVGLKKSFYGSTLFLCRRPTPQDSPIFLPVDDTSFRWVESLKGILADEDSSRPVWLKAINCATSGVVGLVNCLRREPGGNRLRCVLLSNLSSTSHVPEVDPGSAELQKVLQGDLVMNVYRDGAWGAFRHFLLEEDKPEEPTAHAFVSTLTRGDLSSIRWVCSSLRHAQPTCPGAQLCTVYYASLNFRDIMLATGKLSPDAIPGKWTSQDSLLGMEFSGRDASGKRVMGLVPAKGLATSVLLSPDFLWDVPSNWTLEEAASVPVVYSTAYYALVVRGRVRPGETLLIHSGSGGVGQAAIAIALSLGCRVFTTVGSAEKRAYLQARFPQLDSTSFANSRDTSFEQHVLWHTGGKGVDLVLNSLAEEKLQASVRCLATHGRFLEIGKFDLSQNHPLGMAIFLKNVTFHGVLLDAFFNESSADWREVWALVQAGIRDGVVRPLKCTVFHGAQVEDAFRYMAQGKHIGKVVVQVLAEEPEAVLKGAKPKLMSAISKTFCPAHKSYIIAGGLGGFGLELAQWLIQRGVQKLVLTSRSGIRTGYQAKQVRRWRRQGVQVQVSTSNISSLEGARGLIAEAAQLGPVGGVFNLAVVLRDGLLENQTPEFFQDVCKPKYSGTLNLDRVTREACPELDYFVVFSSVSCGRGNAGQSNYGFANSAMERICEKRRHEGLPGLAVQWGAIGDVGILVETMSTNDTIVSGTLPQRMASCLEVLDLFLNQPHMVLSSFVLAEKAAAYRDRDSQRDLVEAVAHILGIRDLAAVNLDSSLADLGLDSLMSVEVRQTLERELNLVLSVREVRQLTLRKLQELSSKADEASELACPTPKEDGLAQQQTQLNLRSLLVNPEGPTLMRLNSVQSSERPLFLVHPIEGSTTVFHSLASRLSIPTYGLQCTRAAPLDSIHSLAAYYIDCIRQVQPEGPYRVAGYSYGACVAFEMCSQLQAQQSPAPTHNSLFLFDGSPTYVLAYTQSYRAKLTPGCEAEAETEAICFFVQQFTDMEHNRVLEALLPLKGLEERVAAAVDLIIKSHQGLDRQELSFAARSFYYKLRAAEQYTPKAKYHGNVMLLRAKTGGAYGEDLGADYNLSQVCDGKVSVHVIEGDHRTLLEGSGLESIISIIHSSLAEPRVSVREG

Caspase-6 = target: T5, Caspase-6 (Homo sapiens, UniProt P55212); assay: inhibition of CASP6 peptide cleavage – biochemical, VEID-R110 fluorescence, cherry-pick, dose response (AID 720632)
T5 sequence (P55212 whole entry): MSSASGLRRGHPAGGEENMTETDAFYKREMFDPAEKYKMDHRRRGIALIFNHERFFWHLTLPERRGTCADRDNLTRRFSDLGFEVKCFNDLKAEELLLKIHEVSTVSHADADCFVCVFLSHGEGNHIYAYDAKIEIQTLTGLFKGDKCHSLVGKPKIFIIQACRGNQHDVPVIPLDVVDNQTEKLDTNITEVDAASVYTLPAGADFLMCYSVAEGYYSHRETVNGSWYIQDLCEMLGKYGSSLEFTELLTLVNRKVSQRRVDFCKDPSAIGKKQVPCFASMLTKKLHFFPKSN

[15] = target: G-protein coupled receptor 55 (Homo sapiens, UniProt Q9Y2T6); assay: inhibition of LPI-stimulated GPR55 beta-arrestin translocation – imaging, U2OS, beta-arrestin-GFP, LPI agonist, primary screen (AID 2013); type: functional;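 further: antagonist potency measured as reduced agonist-driven arrestin aggregation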
Sequence of G-protein coupled receptor 55 (Q9Y2T6 whole entry): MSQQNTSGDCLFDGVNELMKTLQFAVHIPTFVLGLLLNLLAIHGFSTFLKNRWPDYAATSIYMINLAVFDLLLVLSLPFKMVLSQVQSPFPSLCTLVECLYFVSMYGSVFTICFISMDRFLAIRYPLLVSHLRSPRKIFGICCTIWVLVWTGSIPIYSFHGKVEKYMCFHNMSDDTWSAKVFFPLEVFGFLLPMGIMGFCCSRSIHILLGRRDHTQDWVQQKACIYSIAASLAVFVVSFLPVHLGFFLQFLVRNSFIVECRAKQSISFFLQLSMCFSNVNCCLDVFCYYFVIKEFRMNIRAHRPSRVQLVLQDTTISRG

Fatty acid synthase [16] = target: T4, Fatty acid synthase; assay: inhibition of human FAS-TE enzyme activity – biochemical, kinetic fluorescence intensity, dose response (AID 624326); type: functional;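 further: rate of fluorescence rise from hydrolysis of a fluorogenic O-methyl fluorescein ester substrate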
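Wherever CC50 is given: cells exposed to compound for 72 hours before luminescence readout.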

O=C(OCn1ncc(Cl)c(Cl)c1=O)c1cccc(C(F)(F)F)c1
active: AC50 [1] 3.74 µM | EC50 (Protein RecA) 0.19 µM | AC50 [2] 7.88 µM | EC50 [3] 0.781 µM | AC50 [4] 49.7 µM | CC50 [5] 8.16 µM | AC50 [6] 1.44 µM | AC50 [7] 4.11 µM
inconclusive: AC50 (Cytochrome P450 2C9) | EC50 [8] 5.31 µM

CCn1c(C=CN(C(C)=O)c2ccccc2)[n+](CC)c2cc(Cl)ccc21
active: IC50 [9] 2.23 µM | IC50 [10] 4.45 µM

Cc1cccc(Cn2nnc3c2C(=O)c2ccccc2C3=O)c1
active: EC50 (Protein RecA) 0.446 µM | EC50 [11] 2.58 µM | AC50 (INS1) 5.21 µM | CC50 [5] 11.7 µM | AC50 [6] 4.2 µM
> 30 µM (not active): EC50 [12]

C=CCOc1c(OC)cc(/C=N/Nc2cccc(C(=O)O)c2)c(Br)c1Br
active: IC50 (Leucine aminopeptidase) < 1 µM | IC50 (Fatty acid synthase [14]) 3.82 µM | AC50 (Caspase-6) 19.2 µM | IC50 [15] 2.92 µM | IC50 (Fatty acid synthase [16]) 3.06 µM
5.84 µM (not active): IC50 [13]
